Here are results for 19 compounds from patent US9834542B2, “LXR modulators” (BRISTOL-MYERS SQUIBB COMPANY, priority 2013, dated 2017).

The target of the test is T1, LXRβ (Homo sapiens, UniProt P55055).
T1 construct: Co-transfection expression plasmids, comprising full-length LXRα (pCMX-h LXRα[…] or LXRβ (pCMX-hLXRβ)); expressed in transfected cells; host or cells: CV-1 African Green Monkey Kidney Cells
T1 sequence (P55055 1-460): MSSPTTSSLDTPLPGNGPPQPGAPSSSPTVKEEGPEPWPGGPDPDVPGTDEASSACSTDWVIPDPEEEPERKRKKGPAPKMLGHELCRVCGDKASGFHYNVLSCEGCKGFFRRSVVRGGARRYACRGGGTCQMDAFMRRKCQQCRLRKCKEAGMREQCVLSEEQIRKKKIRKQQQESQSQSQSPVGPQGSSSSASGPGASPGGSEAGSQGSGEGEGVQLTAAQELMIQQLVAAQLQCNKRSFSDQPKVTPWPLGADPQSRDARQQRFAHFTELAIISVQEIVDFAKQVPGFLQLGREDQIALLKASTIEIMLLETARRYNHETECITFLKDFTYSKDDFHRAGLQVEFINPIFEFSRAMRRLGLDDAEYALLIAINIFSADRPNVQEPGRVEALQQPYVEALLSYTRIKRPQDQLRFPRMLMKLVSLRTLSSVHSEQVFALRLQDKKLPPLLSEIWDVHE
T1 sequence (P19793 1-462 partner): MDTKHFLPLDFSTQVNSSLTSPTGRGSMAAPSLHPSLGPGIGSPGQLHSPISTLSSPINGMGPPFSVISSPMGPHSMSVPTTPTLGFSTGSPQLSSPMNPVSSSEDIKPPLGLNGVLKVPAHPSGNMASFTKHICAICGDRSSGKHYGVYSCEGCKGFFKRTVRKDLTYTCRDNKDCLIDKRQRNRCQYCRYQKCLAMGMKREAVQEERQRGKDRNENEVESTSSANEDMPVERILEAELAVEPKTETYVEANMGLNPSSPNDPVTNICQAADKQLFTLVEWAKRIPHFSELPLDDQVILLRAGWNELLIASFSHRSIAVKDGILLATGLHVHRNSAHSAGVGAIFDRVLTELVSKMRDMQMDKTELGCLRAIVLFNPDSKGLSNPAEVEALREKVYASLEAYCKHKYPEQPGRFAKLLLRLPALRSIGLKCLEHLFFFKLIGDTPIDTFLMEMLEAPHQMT
The experiment in a line: Co-transfection assay (LXRE luciferase reporter), LXRβ. The class given is cell-based. The conditions noted are these: for EC50: CV-1 cells transfected with pCMX-hLXRβ and LXREx1-Tk-Luciferase, 20 hours incubation; for Emax: LXRβ co-transfection, relative to high control 1-(2,4-difluorobenzyl)-2-oxo-6-(4-phenoxyphenyl)-4-(trifluoromethyl)-1,2-dihydropyridine-3-carbonitrile, read-out: % Efficacy. The essentials: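 CV-1 cells transiently co-transfected with full-length human LXRβ expression plasmid, LXREx1-Tk-luciferase reporter and β-galactosidase control, then exposed to compound for 20 h at 37 °C. Luciferase luminescence read; EC50 from 11-point, ½-log dose–response fit, efficacy relative to high-control agonist maximum.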
Background: In a reporter assay the amount or activity of a reporter protein is the signal.

Each structure is given as a SMILES string.

Regarding `Cc1nc(C(F)(F)F)cn1-c1ccc(-c2cccc(S(C)(=O)=O)c2)cc1-n1nncc1Cc1cccc(Cl)c1` [Example 121, 5-[(3-chlorophenyl)methyl]-1-{3′-(methylsulfonyl)-4-[2-methyl-4-(trifluoromethyl)-1H-imidazol-1-yl]biphenyl-3-yl}-1H-1,2,3-triazole], the EC50 (as a rule, the concentration that produces a half-maximal response) came out at 651 nM and the Emax is 100%.

On to `Cc1nc(C(F)(F)F)cn1-c1ccc(-c2cc(Cl)c(CO)c(S(C)(=O)=O)c2)cc1-n1nncc1Cc1ccc(Cl)cc1` [Example 122, (3-chloro-3′-{5-[(4-chlorophenyl)methyl]-1H-1,2,3-triazol-1-yl}-5-(methylsulfonyl)-4′-[2-methyl-4-(trifluoromethyl)-1H-imidazol-1-yl]biphenyl-4-yl)methanol], for which a half-maximal response (EC50) required 643 nM and the Emax came out at 64%.

As to `Cc1nc(C(F)(F)F)cn1-c1ccc(-c2cccc(S(C)(=O)=O)c2)cc1-n1nncc1Cc1ccccc1OC(F)(F)F` [Example 123, 1-{3′-(methylsulfonyl)-4-[2-methyl-4-(trifluoromethyl)-1H-imidazol-1-yl]biphenyl-3-yl}-5-({2-[(trifluoromethyl)oxy]phen-yl}methyl)-1H-1,2,3-triazole], the EC50 amounted to 1100 nM and the Emax is 36%.

In the case of `Cc1nc(C(F)(F)F)cn1-c1ccc(-c2cccc(S(C)(=O)=O)c2)cc1-n1nncc1Cc1ccc(F)cc1` [Example 124, 5-[(4-fluorophenyl)methyl]-1-{3′-(methylsulfonyl)-4-[2-methyl-4-(trifluoromethyl)-1H-imidazol-1-yl]biphenyl-3-yl}-1H-1,2,3-triazole], a half-maximal effect (EC50) was put at 1160 nM and the Emax came to 64%.

For `Cc1nc(C(F)(F)F)cn1-c1ccc(-c2cccc(S(C)(=O)=O)c2)cc1-n1nncc1Cc1ccc(Cl)cc1` [Example 125, 5-[(4-chlorophenyl)methyl]-1-{3′-(methylsulfonyl)-4-[2-methyl-4-(trifluoromethyl)-1H-imidazol-1-yl]biphenyl-3-yl}-1H-1,2,3-triazole], the EC50 was 355 nM and the Emax was determined as 83%.

For `Cc1ccc(Cc2cnnn2-c2cc(-c3cccc(S(C)(=O)=O)c3)ccc2-n2cc(C(F)(F)F)nc2C)cc1` [Example 126, 5-[(4-methylphenyl)methyl]-1-{3′-(methylsulfonyl)-4-[2-methyl-4-(trifluoromethyl)-1H-imidazol-1-yl]biphenyl-3-yl}-1H-1,2,3-triazole], the EC50 amounted to 270 nM and the Emax came out at 93%.

In the case of `Cc1nc(C(F)(F)F)cn1-c1ccc(-c2cccc(S(C)(=O)=O)c2)cc1-n1nncc1CC1CCC(C)CC1` (centres unmarked) [Example 127, 5-[(4-methylcyclohexyl)methyl]-1-{3′-(methylsulfonyl)-4-[2-methyl-4-(trifluoromethyl)-1H-imidazol-1-yl]biphenyl-3-yl}-1H-1,2,3-triazole], the EC50 was found to be 776 nM and the Emax was determined as 55%.

`Cc1nc(C(F)(F)F)cn1-c1ccc(-c2cccc(S(C)(=O)=O)c2)cc1-n1nncc1CCc1ccc(Cl)cc1` [Example 129, 5-[2-(4-chlorophenyl)ethyl]-1-{3′-(methylsulfonyl)-4-[2-methyl-4-(trifluoromethyl)-1H-imidazol-1-yl]biphenyl-3-yl}-1H-1,2,3-triazole]: a half-maximal effect (EC50) was put at 1500 nM and the Emax turned out to be 65%.

On to `CNS(=O)(=O)c1cccc(-c2ccc(-n3cc(C(F)F)nc3C)c(-n3nncc3C(C)c3ccc(Cl)cc3)c2)c1` (centres unmarked) [Example 130, 3′-{5-[1-(4-chlorophenyl)ethyl]-1H-1,2,3-triazol-1-yl}-4′-[4-(difluoromethyl)-2-methyl-1H-imidazol-1-yl]-N-methylbiphenyl-3-sulfonamide], for which the EC50 turned out to be 896 nM and the Emax was determined as 68%.

For the compound `CCS(=O)(=O)c1cccc(-c2ccc(-n3cc(C(F)F)nc3C)c(-n3nncc3C(C)c3ccc(Cl)cc3)c2)c1` (centres unmarked) [Example 131, 5-[1-(4-chlorophenyl)ethyl]-1-{4-[4-(difluoromethyl)-2-methyl-1H-imidazol-1-yl]-3′-(ethylsulfonyl)biphenyl-3-yl}-1H-1,2,3-triazole], the EC50 amounted to 821 nM and the Emax came out at 77%.

`Cc1nc(C(F)F)cn1-c1ccc(-c2cccc(S(=O)(=O)N(C)C)c2)cc1-n1nncc1C(C)c1ccc(Cl)cc1` (centres unmarked) [Example 132, 3′-{5-[1-(4-chlorophenyl)ethyl]-1H-1,2,3-triazol-1-yl}-4′-[4-(difluoromethyl)-2-methyl-1H-imidazol-1-yl]-N,N-dimethylbiphenyl-3-sulfonamide]: the EC50 is 431 nM and the Emax was 61%.

Take `Cc1nc(C(F)F)cn1-c1ccc(-c2cccc(S(C)(=O)=O)c2)cc1-n1nncc1C(C)c1ccc(Cl)cc1` (centres unmarked) [Example 133, 5-[1-(4-chlorophenyl)ethyl]-1-{4-[4-(difluoromethyl)-2-methyl-1H-imidazol-1-yl]-3′-(methylsulfonyl)biphenyl-3-yl}-1H-1,2,3-triazole]: the EC50 was found to be 256 nM and the Emax is 71%.

With `Cc1nc(C(F)F)cn1-c1ccc(-c2cc(F)c(CO)c(S(C)(=O)=O)c2)cc1-n1nncc1C(C)c1ccc(Cl)cc1` (centres unmarked) [Example 134, [3′-{5-[1-(4-chlorophenyl)ethyl]-1H-1,2,3-triazol-1-yl}-4′-[4-(difluoromethyl)-2-methyl-1H-imidazol-1-yl]-3-fluoro-5-(methylsulfonyl)biphenyl-4-yl]methanol], the midpoint of the response, the EC50, lay at 166 nM and the Emax was found to be 68%.

Regarding `Cc1nc(C(F)(F)F)cn1-c1ccc(-c2cccc(C(C)(C)C(N)=O)c2)cc1-n1nncc1C(=O)c1ccc(C(F)(F)F)cc1` [Example 135, 2-methyl-2-{4′-[2-methyl-4-(trifluoromethyl)-1H-imidazol-1-yl]-3′-(5-{[4-(trifluoromethyl)phenyl]carbonyl}-1H-1,2,3-triazol-1-yl)biphenyl-3-yl}propanamide], the response was half-maximal at 886 nM (EC50) and the Emax amounted to 70%.

Consider `Cc1nc(C(F)(F)F)cn1-c1ccc(-c2cc(F)c(CO)c(S(C)(=O)=O)c2)cc1-n1nncc1C(=O)c1cccc(C(F)(F)F)c1` [Example 136, (1-{3′-fluoro-4′-(hydroxymethyl)-5′-(methylsulfonyl)-4-[2-methyl-4-(trifluoromethyl)-1H-imidazol-1-yl]biphenyl-3-yl}-1H-1,2,3-triazol-5-yl)[3-(trifluoromethyl)phenyl]meth-anone], for which the response was half-maximal at 764 nM (EC50) and the Emax is 69%.

On to `Cc1nc(C(F)(F)F)cn1-c1ccc(-c2cccc(S(C)(=O)=O)c2)cc1-n1nncc1C(=O)c1cccc(C(F)(F)F)c1` [Example 137, (1-{3′-(methylsulfonyl)-4-[2-methyl-4-(trifluoromethyl)-1H-imidazol-1-yl]biphenyl-3-yl}-1H-1,2,3-triazol-5-yl)[3-(trifluoromethyl)phenyl]meth-anone], for which the EC50 is 1090 nM and the Emax was determined as 63%.

`Cc1nc(C(F)(F)F)cn1-c1ccc(-c2cccc(S(C)(=O)=O)c2)cc1-n1nncc1C(=O)c1ccc(C(F)(F)F)cc1` [Example 138, (1-{3′-(methylsulfonyl)-4-[2-methyl-4-(trifluoromethyl)-1H-imidazol-1-yl]biphenyl-3-yl}-1H-1,2,3-triazol-5-yl)[4-(trifluoromethyl)phenyl]meth-anone]: the response was half-maximal at 1290 nM (EC50) and the Emax came to 99%.

Turning to `Cc1nc(C(F)(F)F)cn1-c1ccc(-c2cccc(C(C)(C)C(N)=O)c2)cc1-n1nncc1C(=O)c1ccc(Cl)cc1` [Example 139, 2-(3′-{5-[(4-chlorophenyl)carbonyl]-1H-1,2,3-triazol-1-yl}-4′-[2-methyl-4-(trifluoromethyl)-1H-imidazol-1-yl]biphenyl-3-yl)-2-methylpropanamide], the concentration giving a half-maximal response (EC50) was 1490 nM and the Emax was found to be 71%.

Turning to `Cc1nc(C(F)(F)F)cn1-c1ccc(-c2cc(F)c(CO)c(S(C)(=O)=O)c2)cc1-n1nncc1C(=O)c1ccc(Cl)cc1` [Example 140, (4-chlorophenyl)(1-{3′-fluoro-4′-(hydroxymethyl)-5′-(methylsulfonyl)-4-[2-methyl-4-(trifluoromethyl)-1H-imidazol-1-yl]biphenyl-3-yl}-1H-1,2,3-triazol-5-yl)methanone], the 50% effective concentration (EC50) was found to be 383 nM and the Emax was 64%.
